The results in this text go back to patent US20070270399A1, “New compounds 302” (priority 2006, published 2007).

One series concerns the target T1, human NK1 receptor (Homo sapiens, UniProt P25103).
T1 construct: expressed in transfected cells; host or cells: CHO cells (AstraZeneca R&D, Wilmington USA), pRcCMV vector
Nature of the series: FLIPR assay, inhibition of human NK1 receptor activation (intracellular Ca2+). The class given is cell-based. Particulars: CHO cells with human NK1 receptor, Substance P agonist at approx. EC60; pKB converted from IC50. As to the method:
(§1) Chinese Hamster Ovary (CHO) K1 cells (obtained from ATCC) were stably transfected with the human NK2 receptor (hNK2R cDNA in pRc/CMV, Invitrogen) or the human NK3 receptor (hNK3R in pcDNA 3.1/Hygro (+)/IRES/CD8, Invitrogen vector modified at AstraZeneca EST-Bio UK, Alderley Park). The cells were transfected with the cationic lipid reagent LIPOFECTAMINE™ (Invitrogen) and selection was performed with Geneticin (G418, Invitrogen) at 1 mg/ml for the hNK2R transfected cells and with Hygromycin (Invitrogen) at 500 μg/ml for the hNK3R transfected cells. Single cell clones were collected by aid of Fluorescence Activated Cell Sorter (FACS), tested for functionality in a FLIPR assay (see below), expanded in culture and cryopreserved for future use. CHO cells stably transfected with human NK1 receptors originates from AstraZeneca R&D, Wilmington USA. Human NK1 receptor cDNA (obtained from RNA-PCR from lung tissue) was subcloned into pRcCMV (Invitrogen). Transfection was performed by Calcium Phosphate and selection with 1 mg/ml G418. […]
(§2) The activity of a compound of the invention to inhibit NK1/NK2/NK3 receptor activation measured as NK1/NK2/NK3 receptor mediated increase in intracellular Ca^2+ was assessed by the following procedure: […]

In a further series the target is CYP3A4 (Homo sapiens, UniProt P08684). The series can be described thus: CYP3A4 inhibition according to Bapiro et al. The class given is in vitro ADME. The protocol:
The IC50 values tested according to Bapiro et al; Drug Metab. Dispos. 29, 30-35 (2001) were generally greater than 50 μM.

For a further series, the target named is T2, human NK2 receptor (Homo sapiens, UniProt P21452).
T2 construct: expressed in transfected cells; host or cells: CHO K1 cells (ATCC), pRc/CMV vector
T2 sequence (P21452 1-398): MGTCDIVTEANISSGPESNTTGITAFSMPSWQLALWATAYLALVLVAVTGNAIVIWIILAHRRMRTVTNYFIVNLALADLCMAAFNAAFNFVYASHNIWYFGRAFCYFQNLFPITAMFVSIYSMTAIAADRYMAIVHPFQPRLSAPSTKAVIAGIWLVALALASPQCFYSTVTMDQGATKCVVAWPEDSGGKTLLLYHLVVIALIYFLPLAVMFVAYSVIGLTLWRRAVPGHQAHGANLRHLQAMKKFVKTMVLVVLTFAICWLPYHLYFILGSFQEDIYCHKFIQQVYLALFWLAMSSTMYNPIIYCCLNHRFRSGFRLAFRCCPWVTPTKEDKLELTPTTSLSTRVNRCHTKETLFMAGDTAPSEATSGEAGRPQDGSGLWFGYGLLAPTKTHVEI
Nature of the series: FLIPR assay, inhibition of human NK2 receptor activation (intracellular Ca2+). Conditions: CHO cells with human NK2 receptor, NKA agonist at approx. EC60; pKB converted from IC50. The class given is cell-based. As to the method:
as §1, §2

The nature of series [1]: Metabolic stability in liver microsomes (intrinsic clearance). In kind it is in vitro ADME. Conditions: human, pH 7.4, 37° C., read-out: CLint (HLM). As to the method: The metabolic stability of compounds according to formula I can be determined as described below: […]
The rate of biotransformation can be measured as either metabolite(s) formation or the rate of disappearance of the parent compound. The experimental design involves incubation of low concentrations of substrate (usually 1.0 μM) with liver microsomes (usually 0.5 mg/ml) and taking out aliquotes at varying time points (usually 0, 5, 10, 15, 20, 30, 40 min.). The test compound is usually dissolved in DMSO. The DMSO concentration in the incubation mixture is usually 0.1% or less since more solvent can drastically reduce the activities of some CYP450s. Incubations are done in 100 mM potassium phosphate buffer, pH 7.4 and at 37° C. Acetonitrile or methanol is used to stop the reaction. The parent compound is analysed by HPLC-MS. From the calculated half-life, t1/2, the intrinsic clearance, Clint, is estimated by taking microsomal protein concentration and liver weight into account.

The target of a further series is T3, human NK3 receptor (Homo sapiens, UniProt P29371).
T3 construct: expressed in transfected cells; host or cells: CHO K1 cells (ATCC), pcDNA 3.1/Hygro (+)/IRES/CD8 vector
T3 sequence (P29371 1-465): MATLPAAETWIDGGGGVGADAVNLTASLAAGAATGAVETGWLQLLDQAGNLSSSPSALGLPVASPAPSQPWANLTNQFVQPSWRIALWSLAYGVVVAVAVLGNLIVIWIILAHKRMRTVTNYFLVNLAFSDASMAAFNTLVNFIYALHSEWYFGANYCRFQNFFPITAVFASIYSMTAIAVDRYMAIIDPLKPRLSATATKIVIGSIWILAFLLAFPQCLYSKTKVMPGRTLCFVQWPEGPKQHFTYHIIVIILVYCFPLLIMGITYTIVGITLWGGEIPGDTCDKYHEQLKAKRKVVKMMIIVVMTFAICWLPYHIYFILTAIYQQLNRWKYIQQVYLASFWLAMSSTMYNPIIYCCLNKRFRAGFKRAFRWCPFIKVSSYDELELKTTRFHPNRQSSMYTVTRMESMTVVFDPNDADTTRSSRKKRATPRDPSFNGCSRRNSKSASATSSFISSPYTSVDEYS
The series can be described thus: FLIPR assay, inhibition of human NK3 receptor activation (intracellular Ca2+). The class given is cell-based. Conditions: CHO cells with human NK3 receptor, Pro-7-NKB agonist at approx. EC60; pKB converted from IC50. The protocol:
as §1, §2

The target of series [2] is hERG-encoded potassium channel (Homo sapiens, UniProt Q12809). Nature of the series: Activity against hERG (planar-array-based voltage clamp). In kind it is cell-based. The protocol:
The activity of compounds according to formula I against the hERG-encoded potassium channel can be determined according to Kiss L, et al. Assay Drug Dev Technol. 1 (2003), 127-35: “High throughput ion-channel pharmacology: planar-array-based voltage clamp”.
The IC50 values tested as described above were generally greater than 8 μM.

Bounds are passed on as bounds.

T1 sequence (P25103 whole entry): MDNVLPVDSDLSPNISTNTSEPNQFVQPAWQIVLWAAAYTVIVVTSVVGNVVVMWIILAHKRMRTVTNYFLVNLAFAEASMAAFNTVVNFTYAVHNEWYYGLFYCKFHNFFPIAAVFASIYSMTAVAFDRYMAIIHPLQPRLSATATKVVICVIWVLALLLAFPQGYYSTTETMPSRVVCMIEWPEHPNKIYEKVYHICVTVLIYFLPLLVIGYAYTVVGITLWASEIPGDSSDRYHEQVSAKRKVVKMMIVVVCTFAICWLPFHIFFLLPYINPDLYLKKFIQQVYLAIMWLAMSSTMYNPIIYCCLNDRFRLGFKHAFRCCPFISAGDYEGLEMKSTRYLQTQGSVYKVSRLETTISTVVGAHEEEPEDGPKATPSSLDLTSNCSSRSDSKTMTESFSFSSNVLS
Chain of hERG-encoded potassium channel (Q12809 whole entry): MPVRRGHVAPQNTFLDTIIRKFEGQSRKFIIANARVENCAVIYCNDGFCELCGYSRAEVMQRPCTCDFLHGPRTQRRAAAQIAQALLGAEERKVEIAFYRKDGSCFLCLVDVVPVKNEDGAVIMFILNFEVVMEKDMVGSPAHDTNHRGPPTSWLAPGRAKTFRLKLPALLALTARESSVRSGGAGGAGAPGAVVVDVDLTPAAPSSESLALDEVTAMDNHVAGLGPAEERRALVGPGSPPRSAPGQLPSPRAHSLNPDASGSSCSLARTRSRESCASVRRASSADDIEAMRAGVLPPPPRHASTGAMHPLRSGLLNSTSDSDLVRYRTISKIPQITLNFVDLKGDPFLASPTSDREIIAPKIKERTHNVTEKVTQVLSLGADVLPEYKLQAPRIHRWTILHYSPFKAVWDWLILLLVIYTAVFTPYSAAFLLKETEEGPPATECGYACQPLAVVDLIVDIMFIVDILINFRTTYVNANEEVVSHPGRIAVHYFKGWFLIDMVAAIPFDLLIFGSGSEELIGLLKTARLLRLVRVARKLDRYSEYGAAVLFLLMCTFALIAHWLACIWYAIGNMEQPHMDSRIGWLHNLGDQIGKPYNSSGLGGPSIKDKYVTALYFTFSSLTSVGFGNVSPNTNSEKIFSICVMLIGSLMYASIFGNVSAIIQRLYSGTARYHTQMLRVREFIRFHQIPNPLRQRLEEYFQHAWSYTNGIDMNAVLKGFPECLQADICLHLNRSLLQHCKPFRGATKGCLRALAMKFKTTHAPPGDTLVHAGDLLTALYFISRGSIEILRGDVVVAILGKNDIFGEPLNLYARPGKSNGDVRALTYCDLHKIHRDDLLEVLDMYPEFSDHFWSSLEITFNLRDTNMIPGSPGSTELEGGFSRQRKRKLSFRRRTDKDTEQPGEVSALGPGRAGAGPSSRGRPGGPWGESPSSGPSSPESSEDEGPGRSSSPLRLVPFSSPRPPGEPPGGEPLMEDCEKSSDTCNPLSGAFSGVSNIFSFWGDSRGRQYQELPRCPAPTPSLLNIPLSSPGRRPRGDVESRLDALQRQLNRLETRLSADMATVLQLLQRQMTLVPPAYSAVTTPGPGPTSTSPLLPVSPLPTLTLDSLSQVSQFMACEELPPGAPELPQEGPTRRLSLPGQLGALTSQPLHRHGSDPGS
Chain of CYP3A4 (P08684 whole entry): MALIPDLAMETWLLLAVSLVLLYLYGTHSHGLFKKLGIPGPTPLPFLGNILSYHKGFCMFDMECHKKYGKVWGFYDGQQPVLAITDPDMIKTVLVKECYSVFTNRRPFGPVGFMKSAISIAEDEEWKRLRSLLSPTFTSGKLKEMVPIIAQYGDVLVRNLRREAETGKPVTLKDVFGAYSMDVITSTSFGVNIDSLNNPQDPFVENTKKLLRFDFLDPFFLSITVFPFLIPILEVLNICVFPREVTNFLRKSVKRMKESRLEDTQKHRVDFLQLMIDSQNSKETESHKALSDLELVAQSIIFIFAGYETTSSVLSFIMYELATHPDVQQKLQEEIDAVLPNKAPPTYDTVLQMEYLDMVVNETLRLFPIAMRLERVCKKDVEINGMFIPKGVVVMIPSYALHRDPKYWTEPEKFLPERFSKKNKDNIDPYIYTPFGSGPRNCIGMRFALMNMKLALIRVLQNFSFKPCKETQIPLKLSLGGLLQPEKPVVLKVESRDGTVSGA

One may read the IC50 as the point on the concentration scale where inhibition reaches its midpoint. For `CN(C[C@@H](CCN1CC(N2CCOCC2)C1)c1ccc(F)cc1)C(=O)c1cc(Cl)cc(C(F)(F)F)c1` [Ex1, 3-Chloro-N-[(2S)-2-(4-fluorophenyl)-4-(3-morpholin-4-ylazetidin-1-yl)butyl]-N-methyl-5-(trifluoromethyl)benzamide], the Kb on human NK1 receptor was 25.1 nM; at human NK2 receptor, 50.1 nM; on human NK3 receptor, 126 nM. For the same molecule, the half-maximal inhibitory concentration (IC50) was greater than 50000 nM at CYP3A4 and 8500 nM in series [2]. For the same molecule, the microsomal CLint at 1 μM in series [1] was 39 µL/min/mg.
